Experiments:
NadRLl [1] = target: T1, NadRLl (Lactococcus lactis, UniProt Q9CE60); test: isothermal titration calorimetry; format: binding; settings: read-out: Dissociation Constant-KD
T1 construct: gene nadR; NMNAT domain residues 8-177, RNK domain residues 178-379
T1 sequence (Q9CE60 1-379): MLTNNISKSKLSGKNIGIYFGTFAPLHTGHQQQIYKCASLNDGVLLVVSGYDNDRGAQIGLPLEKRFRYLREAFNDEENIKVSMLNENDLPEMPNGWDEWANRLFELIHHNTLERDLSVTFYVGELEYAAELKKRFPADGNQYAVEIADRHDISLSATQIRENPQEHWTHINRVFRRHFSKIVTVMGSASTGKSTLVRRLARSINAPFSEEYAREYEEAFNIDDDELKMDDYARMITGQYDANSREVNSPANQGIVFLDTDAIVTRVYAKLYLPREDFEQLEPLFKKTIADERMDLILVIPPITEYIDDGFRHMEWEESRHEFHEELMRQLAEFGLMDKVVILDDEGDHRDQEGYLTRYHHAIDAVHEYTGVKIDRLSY
Text: isothermal titration calorimetry on NadRLl

NadRLl [2] = target: T1, NadRLl; test: X-ray crystal structure, […] Å; format: binding; settings: co-crystallised with 5 mM NAD and 5 mM Mg-AMP-PNP, not the active sites
NadRLl [3] = target: T1, NadRLl; test: X-ray crystal structure, […] Å; format: binding; settings: 5 mM NR, pH 6.5; site between the two domains, not the active sites
NadRLl [4] = target: T1, NadRLl; test: LDH-coupled NADH absorbance at […] nm (NR to NAD); format: biochemical; settings: substrate inhibition; 10 mM Mg-ATP; 100 mM Tris/HCl pH 7.5; 25 °C
NadRLl [5] = target: T1, NadRLl; test: X-ray crystal structure, […] Å; format: binding; settings: 5 mM NMN, pH 6.5; site between the two domains, not the active sites
NadRLl [6] = target: T1, NadRLl; test: LDH-coupled NADH absorbance at […] nm (NMN to NAD); format: biochemical; settings: substrate inhibition; 10 mM Mg-ATP; 100 mM Tris/HCl pH 7.5; 25 °C
purified protein [7] = substrate: NC(=O)c1ccc[n+]([C@@H]2O[C@H](CO)[C@@H](O)[C@H]2O)c1; test: purified protein; format: biochemical, Lactococcus lactis; settings: 10 mM Mg-ATP, 100 mM Tris/HCl pH 7.5, 25 °C, substrate-inhibition model
purified protein [8] = substrate: Nc1ncnc2c1ncn2[C@@H]1O[C@H](COP(=O)(O)OP(=O)(O)OP(=O)(O)O)[C@@H](O)[C@H]1O; test: purified protein; format: biochemical, Lactococcus lactis; settings: 1 mM NMN, 100 mM Tris/HCl pH 7.5, 25 °C, Mg-ATP, Hill coefficient 2.2 ± 0.3
purified protein [9] = substrate: NC(=O)c1ccc[n+]([C@@H]2O[C@H](COP(=O)([O-])O)[C@@H](O)[C@H]2O)c1; test: purified protein; format: biochemical, Lactococcus lactis; settings: 10 mM Mg-ATP, 100 mM Tris/HCl pH 7.5, 25 °C, substrate-inhibition model

`Nc1ncnc2c1ncn2[C@@H]1O[C@H](COP(=O)(O)OP(=O)(O)NP(=O)(O)O)[C@@H](O)[C@H]1O` [AMP-PNP] was tested, and the Kd (NadRLl [1]) was 13 ± 1 µM and the “X-ray crystal structure, 3.00 Å” value (NadRLl [2]; mixture with NAD at site between the two domains) was “we observed a mixture of NAD and AMP-PNP bound at this location”.

`NC(=O)c1ccc[n+]([C@@H]2O[C@H](CO)[C@@H](O)[C@H]2O)c1` [nicotinamide riboside] was tested, and the “X-ray crystal structure, 2.30 Å” value (NadRLl [3]) was “we obtained structures in the presence of NMN and NR, which both have bound substrates” and the “Ki” value (NadRLl [4]) was 31400 ± 8100 µM.

`NC(=O)c1ccc[n+]([C@@H]2O[C@H](COP(=O)(O)OP(=O)(O)OC[C@H]3O[C@@H](n4cnc5c(N)ncnc54)[C@H](O)[C@@H]3O)[C@@H](O)[C@H]2O)c1` [NAD] was tested, and the “X-ray crystal structure, 3.00 Å” value (NadRLl [2]; mixture with AMP-PNP at site between the two domains) was “we observed a mixture of NAD and AMP-PNP bound at this location”.

For `Nc1ncnc2c1ncn2[C@@H]1O[C@H](COP(=O)(O)OP(=O)(O)OP(=O)(O)O)[C@@H](O)[C@H]1O` [ATP], the Kd (NadRLl [1]) was 63 ± 1 µM.

`NC(=O)c1ccc[n+]([C@@H]2O[C@H](COP(=O)([O-])O)[C@@H](O)[C@H]2O)c1` [nicotinamide mononucleotide] was tested, and the “X-ray crystal structure, 2.70 Å” value (NadRLl [5]) was “we obtained structures in the presence of NMN and NR, which both have bound substrates” and the “Ki” value (NadRLl [6]) was 25400 ± 10800 µM.

B1: NadRLl (Lactococcus lactis subsp. lactis Il1403) (protein)
chain: MLTNNISKSKLSGKNIGIYFGTFAPLHTGHQQQIYKCASLNDGVLLVVSGYDNDRGAQIGLPLEKRFRYLREAFNDEENIKVSMLNENDLPEMPNGWDEWANRLFELIHHNTLERDLSVTFYVGELEYAAELKKRFPADGNQYAVEIADRHDISLSATQIRENPQEHWTHINRVFRRHFSKIVTVMGSASTGKSTLVRRLARSINAPFSEEYAREYEEAFNIDDDELKMDDYARMITGQYDANSREVNSPANQGIVFLDTDAIVTRVYAKLYLPREDFEQLEPLFKKTIADERMDLILVIPPITEYIDDGFRHMEWEESRHEFHEELMRQLAEFGLMDKVVILDDEGDHRDQEGYLTRYHHAIDAVHEYTGVKIDRLSY
notes: NMNAT domain residues 8-177, RNK domain residues 178-379
In the case of B1, the Km (purified protein [7]) is reported as 600 ± 100 µM, the Vmax (purified protein [7]) is reported as 0.4 µmol/min/mg and the K0.5 (purified protein [8]) is reported as 5.2 ± 0.6 mM. For the same molecule, the Vmax (purified protein [8]) was 1.2 µmol/min/mg, the Km (purified protein [9]) was 500 ± 100 µM and the Vmax (purified protein [9]) was 1.5 µmol/min/mg.
